Test results: PMC5218480 (PLoS ONE, 2017)

Test system: MV-4-11 cells
Experiment: Gene expression microarray analysis (Affymetrix PrimeView) and GSEA
Format: cell-based, human
Parameters: RFU PODN (11730768_x_at) / Fold change /veh PODN (11730768_x_at) / RFU LINC00158 (11744669_a_at) / Fold change /veh LINC00158 (11744669_a_at) / RFU DUSP10 (11751237_a_at) / Fold change /veh DUSP10 (11751237_a_at) / RFU ID3 (11757404_x_at) / Fold change /veh ID3 (11757404_x_at) / RFU PLEKHG5 (11737974_s_at) / Fold change /veh PLEKHG5 (11737974_s_at) / RFU LRRC4B (11730491_at) / Fold change /veh LRRC4B (11730491_at) / RFU GIMAP4 (11747438_a_at) / Fold change /veh GIMAP4 (11747438_a_at) / RFU KRT8 (11758183_x_at) / Fold change /veh KRT8 (11758183_x_at) / RFU CNN1 (11734310_a_at) / Fold change /veh CNN1 (11734310_a_at) / RFU VPS37D (11726825_at) / Fold change /veh VPS37D (11726825_at) / RFU C10orf10 (11716522_x_at) / Fold change /veh C10orf10 (11716522_x_at) / RFU KIR2DL2 /// KIR2DL4 /// KIR2DL5A /// KIR2DL5B /// KIR2DS1 /// KIR2DS2 /// KIR2DS3 /// KIR2DS4 /// KIR3DL3 /// KIR3DL3 /// KIR3DS1 (11738374_at) / Fold change /veh KIR2DL2 /// KIR2DL4 /// KIR2DL5A /// KIR2DL5B /// KIR2DS1 /// KIR2DS2 /// KIR2DS3 /// KIR2DS4 /// KIR3DL3 /// KIR3DL3 /// KIR3DS1 (11738374_at) / RFU C1QL1 (11718748_at) / Fold change /veh C1QL1 (11718748_at) / RFU TMPRSS4 (11747572_a_at) / Fold change /veh TMPRSS4 (11747572_a_at) / RFU HAMP (11756126_x_at) / Fold change /veh HAMP (11756126_x_at) / RFU RNFT2 (11725882_a_at) / Fold change /veh RNFT2 (11725882_a_at) / RFU NR4A2 (11747474_a_at) / Fold change /veh NR4A2 (11747474_a_at) / RFU ABCC12 (11746883_a_at) / Fold change /veh ABCC12 (11746883_a_at) / RFU TMEM136 (11760407_x_at) / Fold change /veh TMEM136 (11760407_x_at) / RFU CLDN22 /// WWC2 (11732394_at) / Fold change /veh CLDN22 /// WWC2 (11732394_at) / RFU HLA-DPB1 (11760878_x_at) / Fold change /veh HLA-DPB1 (11760878_x_at) / RFU SPINT1 (11716480_a_at) / Fold change /veh SPINT1 (11716480_a_at) / RFU GAP43 (11754022_s_at) / Fold change /veh GAP43 (11754022_s_at) / RFU A4GNT (11735810_at) / Fold change /veh A4GNT (11735810_at) / RFU PRB3 (11715151_x_at) / Fold change /veh PRB3 (11715151_x_at) / RFU TUBB4B (11761932_at) / Fold change /veh TUBB4B (11761932_at) / RFU CAPN14 (11732068_a_at) / Fold change /veh CAPN14 (11732068_a_at) / RFU TMCC2 (11721928_a_at) / Fold change /veh TMCC2 (11721928_a_at) / RFU IRGQ (11745062_a_at) / Fold change /veh IRGQ (11745062_a_at) / RFU FAM174B (11720279_a_at) / Fold change /veh FAM174B (11720279_a_at) / RFU TMPRSS4 (11748680_a_at) / Fold change /veh TMPRSS4 (11748680_a_at) / RFU FAM212B (11763350_a_at) / Fold change /veh FAM212B (11763350_a_at) / RFU PLEKHG5 (11743358_a_at) / Fold change /veh PLEKHG5 (11743358_a_at) / RFU ZSCAN30 (11745921_a_at) / Fold change /veh ZSCAN30 (11745921_a_at) / RFU CMKLR1 (11741424_a_at) / Fold change /veh CMKLR1 (11741424_a_at) / RFU LOC101060620 /// MAPK8IP1 (11723275_at) / Fold change /veh LOC101060620 /// MAPK8IP1 (11723275_at) / RFU SPTSSB (11747773_x_at) / Fold change /veh SPTSSB (11747773_x_at) / RFU PRSS12 (11739890_at) / Fold change /veh PRSS12 (11739890_at) / RFU BIN1 (11741810_x_at) / Fold change /veh BIN1 (11741810_x_at) / RFU WNT11 (11732464_a_at) / Fold change /veh WNT11 (11732464_a_at) / RFU C10orf10 (11716521_a_at) / Fold change /veh C10orf10 (11716521_a_at) / RFU C5orf56 (11738089_at) / Fold change /veh C5orf56 (11738089_at) / RFU CYB561 (11721691_x_at) / Fold change /veh CYB561 (11721691_x_at) / RFU ANKRD19P (11752326_a_at) / Fold change /veh ANKRD19P (11752326_a_at) / RFU OR2T12 /// OR2T33 /// OR2T8 (11738714_s_at) / Fold change /veh OR2T12 /// OR2T33 /// OR2T8 (11738714_s_at) / RFU VCAN (11748164_a_at) / Fold change /veh VCAN (11748164_a_at) / RFU JSRP1 (11732532_at) / Fold change /veh JSRP1 (11732532_at) / RFU KRTAP10-11 (11738290_x_at) / Fold change /veh KRTAP10-11 (11738290_x_at) / RFU MYO3A (11730013_a_at) / Fold change /veh MYO3A (11730013_a_at) / RFU EBF3 (11725865_a_at) / Fold change /veh EBF3 (11725865_a_at) / RFU CAMK2N1 (11719241_x_at) / Fold change /veh CAMK2N1 (11719241_x_at) / RFU C5orf56 (11738088_a_at) / Fold change /veh C5orf56 (11738088_a_at) / RFU OLFML3 (11715873_a_at) / Fold change /veh OLFML3 (11715873_a_at) / RFU LOC100653217 /// NTM (11731650_a_at) / Fold change /veh LOC100653217 /// NTM (11731650_a_at) / RFU MAPK11 (11762145_a_at) / Fold change /veh MAPK11 (11762145_a_at) / RFU FIZ1 (11724087_x_at) / Fold change /veh FIZ1 (11724087_x_at) / RFU OASL (11726364_x_at) / Fold change /veh OASL (11726364_x_at) / RFU SOX15 (11748057_x_at) / Fold change /veh SOX15 (11748057_x_at) / RFU CD79A (11719716_a_at) / Fold change /veh CD79A (11719716_a_at) / RFU HIST1H1D (11736915_at) / Fold change /veh HIST1H1D (11736915_at) / RFU CASKIN2 (11723855_a_at) / Fold change /veh CASKIN2 (11723855_a_at) / RFU LOC730098 (11760151_x_at) / Fold change /veh LOC730098 (11760151_x_at) / RFU OR4N2 (11742367_at) / Fold change /veh OR4N2 (11742367_at) / RFU PRRT2 (11749266_a_at) / Fold change /veh PRRT2 (11749266_a_at) / RFU SNX32 (11753110_a_at) / Fold change /veh SNX32 (11753110_a_at) / RFU CDHR5 (11726645_a_at) / Fold change /veh CDHR5 (11726645_a_at) / RFU RCAN1 (11760418_a_at) / Fold change /veh RCAN1 (11760418_a_at) / RFU FAM167A (11723789_a_at) / Fold change /veh FAM167A (11723789_a_at) / RFU FAM26E (11764081_at) / Fold change /veh FAM26E (11764081_at) / RFU ISYNA1 (11749810_s_at) / Fold change /veh ISYNA1 (11749810_s_at) / RFU ACY1 (11761880_at) / Fold change /veh ACY1 (11761880_at) / RFU 11764098_at / Fold change /veh 11764098_at / RFU SAMD14 (11745864_x_at) / Fold change /veh SAMD14 (11745864_x_at) / RFU NPB (11741838_a_at) / Fold change /veh NPB (11741838_a_at) / RFU TMPRSS6 (11731388_a_at) / Fold change /veh TMPRSS6 (11731388_a_at) / RFU KRTAP10-2 (11738614_at) / Fold change /veh KRTAP10-2 (11738614_at) / RFU ARHGAP8 /// PRR5-ARHGAP8 (11727945_x_at) / Fold change /veh ARHGAP8 /// PRR5-ARHGAP8 (11727945_x_at) / RFU KRTAP5-7 /// NADSYN1 (11734609_at) / Fold change /veh KRTAP5-7 /// NADSYN1 (11734609_at) / RFU RASL12 (11751679_a_at) / Fold change /veh RASL12 (11751679_a_at) / RFU CDKN2B (11736163_a_at) / Fold change /veh CDKN2B (11736163_a_at) / RFU PRF1 (11729649_at) / Fold change /veh PRF1 (11729649_at) / RFU, ZNF638 /// ZNF638-IT1 / Fold change vs veh, ZNF638 /// ZNF638-IT1 / RFU, PANK3 / Fold change vs veh, PANK3 / RFU, SH3YL1 / Fold change vs veh, SH3YL1 / RFU, ZEB2 / Fold change vs veh, ZEB2 / RFU, NRIP1 / Fold change vs veh, NRIP1 / RFU, PTTG1IP / Fold change vs veh, PTTG1IP / RFU, CAPN2 / Fold change vs veh, CAPN2 / RFU, MED14 / Fold change vs veh, MED14 / RFU, SNORA58 / Fold change vs veh, SNORA58 / RFU, C1orf63 / Fold change vs veh, C1orf63 / RFU, LRRFIP1 / Fold change vs veh, LRRFIP1 / RFU, NDUFAF7 / Fold change vs veh, NDUFAF7 / RFU, SLC12A2 / Fold change vs veh, SLC12A2 / RFU, IBTK / Fold change vs veh, IBTK / RFU, ESF1 / Fold change vs veh, ESF1 / Fold change vs veh, TMEM50B / RFU, TAOK1 / Fold change vs veh, TAOK1 / RFU, ACBD3 / Fold change vs veh, ACBD3 / RFU, TMA16 / Fold change vs veh, TMA16 / RFU, RWDD3 / Fold change vs veh, RWDD3 / RFU, BCAT1 / Fold change vs veh, BCAT1 / RFU, EDEM3 / Fold change vs veh, EDEM3 / RFU, TMEM33 / Fold change vs veh, TMEM33 / RFU, WDR75 / Fold change vs veh, WDR75 / RFU, AHCTF1 / Fold change vs veh, AHCTF1 / RFU, TFRC / Fold change vs veh, TFRC / RFU, ZDHHC17 / Fold change vs veh, ZDHHC17 / RFU, NOM1 / Fold change vs veh, NOM1 / RFU, ARL8B / Fold change vs veh, ARL8B / RFU, ZBTB11 / Fold change vs veh, ZBTB11 / RFU, TAMM41 / Fold change vs veh, TAMM41 / RFU, KIAA1704 /// LOC100996395 / Fold change vs veh, KIAA1704 /// LOC100996395 / RFU, ING1 / Fold change vs veh, ING1 / RFU, TRMT61B / Fold change vs veh, TRMT61B / RFU, FUBP3 / Fold change vs veh, FUBP3 / RFU, TP53 / Fold change vs veh, TP53 / RFU, TNKS2 / Fold change vs veh, TNKS2 / RFU, ZFP14 / Fold change vs veh, ZFP14 / RFU, ACTR2 / Fold change vs veh, ACTR2 / RFU, PPP3R1 / Fold change vs veh, PPP3R1 / RFU, PIK3R1 / Fold change vs veh, PIK3R1 / RFU, HNRNPA1 / Fold change vs veh, HNRNPA1 / RFU, RNF170 / Fold change vs veh, RNF170 / RFU, ZNF28 / Fold change vs veh, ZNF28 / RFU, RNGTT / Fold change vs veh, RNGTT / RFU, OGT / Fold change vs veh, OGT / RFU, BRD1 / Fold change vs veh, BRD1 / RFU, MARS / Fold change vs veh, MARS / RFU, ZNF655 / Fold change vs veh, ZNF655 / RFU, FAHD1 / Fold change vs veh, FAHD1 / RFU, BDP1 / Fold change vs veh, BDP1 / RFU, LRRCC1 / Fold change vs veh, LRRCC1 / RFU, ARID1A / Fold change vs veh, ARID1A / RFU, ZNF146 / Fold change vs veh, ZNF146 / RFU, ZNF330 / Fold change vs veh, ZNF330 / RFU, GPN3 / Fold change vs veh, GPN3 / RFU, C9orf123 / Fold change vs veh, C9orf123 / RFU, N4BP2L2 / Fold change vs veh, N4BP2L2 / RFU, ARFIP1 / Fold change vs veh, ARFIP1 / RFU, FAM179B / Fold change vs veh, FAM179B / RFU, BCL10 / Fold change vs veh, BCL10 / RFU, UHRF1BP1L / Fold change vs veh, UHRF1BP1L / RFU, BET1 / Fold change vs veh, BET1 / RFU, CNOT2 / Fold change vs veh, CNOT2 / RFU, ZNF268 / Fold change vs veh, ZNF268 / Fold change vs veh, ZNF507 / RFU, DGCR2 / Fold change vs veh, DGCR2 / RFU, WDSUB1 / Fold change vs veh, WDSUB1 / Fold change vs veh, HSP90B1 /// MIR3652 / RFU, ADSS / Fold change vs veh, ADSS / RFU, GK / Fold change vs veh, GK / RFU, ZNF148 / Fold change vs veh, ZNF148 / RFU, TAF9 / Fold change vs veh, TAF9 / RFU, SLC1A5 / Fold change vs veh, SLC1A5 / RFU, SLMO2 / Fold change vs veh, SLMO2 / RFU, ABCC4 / Fold change vs veh, ABCC4 / RFU, LOC101060439 /// RAP1B / Fold change vs veh, LOC101060439 /// RAP1B / RFU, RFX7 / Fold change vs veh, RFX7 / RFU, GTPBP10 / Fold change vs veh, GTPBP10 / RFU, CNEP1R1 / Fold change vs veh, CNEP1R1 / RFU, BIVM-ERCC5 /// ERCC5 / Fold change vs veh, BIVM-ERCC5 /// ERCC5 / RFU, ILF3 / Fold change vs veh, ILF3 / RFU 11762660_at / Fold change /veh 11762660_at / RFU VCAN (11757783_s_at) / Fold change /veh VCAN (11757783_s_at) / RFU DDX43 (11728927_at) / Fold change /veh DDX43 (11728927_at) / RFU KRT8 (11758188_x_at) / Fold change /veh KRT8 (11758188_x_at) / RFU NKD1 (11759106_at) / Fold change /veh NKD1 (11759106_at) / RFU SRD5A1 (11742802_a_at) / Fold change /veh SRD5A1 (11742802_a_at) / RFU TPSAB1 /// TPSB2 (11721975_s_at) / Fold change /veh TPSAB1 /// TPSB2 (11721975_s_at) / RFU GSTM3 (11746129_a_at) / Fold change /veh GSTM3 (11746129_a_at) / RFU IL23R (11737362_x_at) / Fold change /veh IL23R (11737362_x_at) / RFU TMEM51 (11727254_a_at) / Fold change /veh TMEM51 (11727254_a_at) / RFU PIWIL2 (11732686_x_at) / Fold change /veh PIWIL2 (11732686_x_at) / RFU ORM1 (11744905_x_at) / Fold change /veh ORM1 (11744905_x_at) / RFU CCDC152 (11743942_at) / Fold change /veh CCDC152 (11743942_at) / RFU ECM1 (11717891_a_at) / Fold change /veh ECM1 (11717891_a_at) / RFU IL23R (11748794_a_at) / Fold change /veh IL23R (11748794_a_at) / RFU TNFAIP8L3 (11732012_x_at) / Fold change /veh TNFAIP8L3 (11732012_x_at) / RFU MBOAT4 (11741988_at) / Fold change /veh MBOAT4 (11741988_at) / RFU 11764193_at / Fold change /veh 11764193_at / RFU TMEM53 (11763286_at) / Fold change /veh TMEM53 (11763286_at) / RFU MAGEB2 (11727129_at) / Fold change /veh MAGEB2 (11727129_at) / RFU TMEM200A (11744735_a_at) / Fold change /veh TMEM200A (11744735_a_at) / RFU CCDC152 (11751479_a_at) / Fold change /veh CCDC152 (11751479_a_at) / RFU FAM211A (11726209_a_at) / Fold change /veh FAM211A (11726209_a_at) / RFU RGS16 (11746705_a_at) / Fold change /veh RGS16 (11746705_a_at) / RFU VCAN (11755009_s_at) / Fold change /veh VCAN (11755009_s_at) / RFU RHOB (11743442_s_at) / Fold change /veh RHOB (11743442_s_at) / RFU RGS16 (11720943_a_at) / Fold change /veh RGS16 (11720943_a_at) / RFU RGS16 (11720944_at) / Fold change /veh RGS16 (11720944_at) / RFU, VPS4B / Fold change vs veh, VPS4B / RFU, CREB1 / Fold change vs veh, CREB1 / RFU, DNAJC13 / Fold change vs veh, DNAJC13 / RFU, GNAQ / Fold change vs veh, GNAQ / RFU, CDK5R1 / Fold change vs veh, CDK5R1 / RFU, ZRANB3 / Fold change vs veh, ZRANB3 / RFU, CUL4A / Fold change vs veh, CUL4A / RFU, CCNY / Fold change vs veh, CCNY / RFU, UFL1 / Fold change vs veh, UFL1 / RFU, COG3 / Fold change vs veh, COG3 / RFU, DIAPH2 / Fold change vs veh, DIAPH2 / RFU, SKA2 / Fold change vs veh, SKA2 / RFU, AFF3 / Fold change vs veh, AFF3 / RFU, LMF1 / Fold change vs veh, LMF1 / RFU, IPO11 / Fold change vs veh, IPO11 / RFU, DFFB / Fold change vs veh, DFFB / RFU, FOXP1 / Fold change vs veh, FOXP1 / RFU, CARD8 / Fold change vs veh, CARD8 / RFU, STRN3 / Fold change vs veh, STRN3 / RFU, ADK / Fold change vs veh, ADK / RFU, RASSF2 / Fold change vs veh, RASSF2 / RFU, WIPF1 / Fold change vs veh, WIPF1 / RFU, LARP1B / Fold change vs veh, LARP1B / RFU, RASA1 / Fold change vs veh, RASA1 / RFU, RB1 / Fold change vs veh, RB1 / RFU, PPFIA1 / Fold change vs veh, PPFIA1 / RFU, MAT2A / Fold change vs veh, MAT2A / RFU, CCT5 / Fold change vs veh, CCT5 / RFU, WDR92 / Fold change vs veh, WDR92 / RFU, CUX1 / Fold change vs veh, CUX1 / RFU, TTC7A / Fold change vs veh, TTC7A / RFU, TMEM135 / Fold change vs veh, TMEM135 / RFU, DEPTOR / Fold change vs veh, DEPTOR / RFU, CPM / Fold change vs veh, CPM / RFU, DNAJB6 / Fold change vs veh, DNAJB6 / RFU, CACNA2D3 / Fold change vs veh, CACNA2D3 / RFU, DTX4 / Fold change vs veh, DTX4 / RFU, TFCP2 / Fold change vs veh, TFCP2 / RFU, GMCL1 /// GMCL1P1 / Fold change vs veh, GMCL1 /// GMCL1P1 / RFU, AEBP2 / Fold change vs veh, AEBP2 / RFU, SNHG1 /// SNORD22 /// SNORD25 /// SNORD26 /// SNORD27 /// SNORD28 /// SNORD29 /// SNORD31 / Fold change vs veh, SNHG1 /// SNORD22 /// SNORD25 /// SNORD26 /// SNORD27 /// SNORD28 /// SNORD29 /// SNORD31 / Fold change (Aza/veh), C12orf56 (ProbeSet 11735607_a_at) / Fold change (ACY-1035/veh), C12orf56 (ProbeSet 11735607_a_at) / Fold change (Aza/veh), FGFR1OP (ProbeSet 11751329_s_at) / Fold change (ACY-1035/veh), FGFR1OP (ProbeSet 11751329_s_at) / Fold change (Aza/veh), VPS36 (ProbeSet 11739960_a_at) / Fold change (ACY-1035/veh), VPS36 (ProbeSet 11739960_a_at) / RFU SYPL1 (11715823_x_at) / Fold change /veh SYPL1 (11715823_x_at) / RFU IGFBP7 (11715501_s_at) / Fold change /veh IGFBP7 (11715501_s_at) / RFU REEP3 (11722064_at) / Fold change /veh REEP3 (11722064_at) / RFU IGLL1 (11728026_x_at) / Fold change /veh IGLL1 (11728026_x_at): dose or concentration left out as unconfirmed
Conditions: MV-4-11 cells, 48 hours

Nc1ncn([C@@H]2O[C@H](CO)[C@@H](O)[C@H]2O)c(=O)n1 [azacitidine]
RFU TMEM53 (11763286_at): 26.80 RFU
